Patent US7238701B2, “Substituted tetrahydrobenzothienopyrimidinamine compounds useful for treating hyper-proliferative disorders” (Bayer Pharmaceuticals Corporation, priority 2003, dated 2007)

How the values were obtained:
[1] = test system: BT474 (human breast carcinoma); assay: In vitro tumor cell proliferation assay (Cell Titer-Glo luminescent cell viability), BT474 cells; format: cell-based; settings: BT-474, 72 hours drug exposure, 10% Fetal Bovine Serum, ATP luminescence readout, read-out: IC50 (50% inhibition of cell proliferation)
Outline: (§1)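 ATP luminescence (CellTiter-Glo) measured proliferation after 72 h compound exposure at 37 °C, giving IC50 values. Serial dilutions spanning 64 pM–100 μM in 0.1% DMSO were applied one day after plating 2.5×10^3 cells/well in RPMI plus 10% fetal bovine serum.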

[2] = test system: A431cells (human epidermoid carcinoma); assay: In vitro tumor cell proliferation assay (Cell Titer-Glo luminescent cell viability), A431 cells; format: cell-based; settings: A-431, 72 h, 72 hours drug exposure, 10% Fetal Bovine Serum, ATP luminescence readout, read-out: IC50 (50% inhibition of cell proliferation)
Outline: as §1

| Structure (SMILES) | IC50 [1] | IC50 [2] |
| --- | --- | --- |
| COCCNCCC1CCc2c(sc3ncnc(Nc4ccc5c(cnn5Cc5ccccc5)c4)c23)C1 (centres unmarked) [Example 205, N-(1-benzyl-1H-indazol-5-yl)-7-{2-[(2-methoxyethyl)amino]ethyl}-5,6,7,8-tetrahydro[1]benzothieno[2,3-d]pyrimidin-4-amine] | < 5 µM | < 5 µM |
| OCCNCCC1CCc2c(sc3ncnc(Nc4ccc5c(cnn5Cc5ccccc5)c4)c23)C1 (centres unmarked) [Example 206, 2-[(2-{4-[(1-benzyl-1H-indazol-5-yl)amino]-5,6,7,8-tetrahydro[1]benzothieno[2,3-d]pyrimidin-7-yl}ethyl)amino]ethanol] | < 5 µM | < 5 µM |
| CN(C)C1CCN(CCC2CCc3c(sc4ncnc(Nc5ccc6c(cnn6Cc6ccccc6)c5)c34)C2)C1 (centres unmarked) [Example 207, N-(1-benzyl-1H-indazol-5-yl)-7-{2-[3-(dimethylamino)pyrrolidin-1-yl]ethyl}-5,6,7,8-tetrahydro[1]benzothieno[2,3-d]pyrimidin-4-amine] | < 5 µM | < 5 µM |
| c1ccc(Cn2ncc3cc(Nc4ncnc5sc6c(c45)CCC(CCN4CCCC4)C6)ccc32)cc1 (centres unmarked) [Example 208, N-(1-benzyl-1H-indazol-5-yl)-7-(2-pyrrolidin-1-ylethyl)-5,6,7,8-tetrahydro[1]benzothieno[2,3-d]pyrimidin-4-amine] | < 5 µM | < 5 µM |
| c1ccc(Cn2ncc3cc(Nc4ncnc5sc6c(c45)CCC(CCNCCN4CCOCC4)C6)ccc32)cc1 (centres unmarked) [Example 209, N-(1-benzyl-1H-indazol-5-yl)-7-{2-[(2-morpholin-4-ylethyl)amino]ethyl}-5,6,7,8-tetrahydro[1]benzothieno[2,3-d]pyrimidin-4-amine] | < 5 µM | < 5 µM |
| CS(=O)(=O)CCNCCC1CCc2c(sc3ncnc(Nc4ccc5c(cnn5Cc5ccccc5)c4)c23)C1 (centres unmarked) [Example 210, N-(1-benzyl-1H-indazol-5-yl)-7-(2-{[2-(methylsulfonyl)ethyl]amino}ethyl)-5,6,7,8-tetrahydro[1]benzothieno[2,3-d]pyrimidin-4-amine] | < 5 µM | < 5 µM |
| c1ccc(Cn2ncc3cc(Nc4ncnc5sc6c(c45)CCC(CCNCCN4CCCC4)C6)ccc32)cc1 (centres unmarked) [Example 211, N-(1-benzyl-1H-indazol-5-yl)-7-{2-[(2-pyrrolidin-1-ylethyl)amino]ethyl}-5,6,7,8-tetrahydro[1]benzothieno[2,3-d]pyrimidin-4-amine] | < 5 µM | < 5 µM |
| CN(C)CCCCNCCC1CCc2c(sc3ncnc(Nc4ccc5c(cnn5Cc5ccccc5)c4)c23)C1 (centres unmarked) [Example 212, N′-(2-{4-[(1-benzyl-1H-indazol-5-yl)amino]-5,6,7,8-tetrahydro[1]benzothieno[2,3-d]pyrimidin-7-yl}ethyl)-N,N-dimethylbutane-1,4-diamine] | < 5 µM | < 5 µM |
| CCOC(=O)CC1CCc2c(sc3ncnc(Nc4ccc(Oc5ccc(C)nc5)c(C)c4)c23)C1 (centres unmarked) [Example 213, ethyl [4-({3-methyl-4-[(6-methylpyridin-3-yl)oxy]phenyl}amino)-5,6,7,8-tetrahydro[1]benzothieno[2,3-d]pyrimidin-7-yl]acetate] | < 50 µM | < 50 µM |
| Cc1ccc(Oc2ccc(Nc3ncnc4sc5c(c34)CCC(CCO)C5)cc2C)cn1 (centres unmarked) [Example 214, 2-{4-[3-Methyl-4-(6-methyl-pyridin-3-yloxy)-phenylamino]-5,6,7,8-tetrahydro-benzo[4,5]thieno[2,3-d]pyrimidin-7-yl}-ethanol] | < 5 µM | < 50 µM |
| Cc1ccc(Oc2ccc(Nc3ncnc4sc5c(c34)CCC(CCOS(C)(=O)=O)C5)cc2C)cn1 (centres unmarked) [Example 215, 2-[4-({3-methyl-4-[(6-methylpyridin-3-yl)oxy]phenyl}amino)-5,6,7,8-tetrahydro[1]benzothieno[2,3-d]pyrimidin-7-yl]ethyl methanesulfonate] | < 5 µM | < 50 µM |
| COCCNCCC1CCc2c(sc3ncnc(Nc4ccc(Oc5ccc(C)nc5)c(C)c4)c23)C1 (centres unmarked) [Example 216, 7-{2-[(2-methoxyethyl)amino]ethyl}-N-{3-methyl-4-[(6-methylpyridin-3-yl)oxy]phenyl}-5,6,7,8-tetrahydro[1]benzothieno[2,3-d]pyrimidin-4-amine] | < 5 µM | < 50 µM |
| Cc1ccc(Oc2ccc(Nc3ncnc4sc5c(c34)CCC(CCNCCO)C5)cc2C)cn1 (centres unmarked) [Example 217, 2-({2-[4-({3-methyl-4-[(6-methylpyridin-3-yl)oxy]phenyl}amino)-5,6,7,8-tetrahydro[1]benzothieno[2,3-d]pyrimidin-7-yl]ethyl}amino)ethanol] | < 5 µM | < 50 µM |
| COCCN(C)CCC1CCc2c(sc3ncnc(Nc4ccc(Oc5ccc(C)nc5)c(C)c4)c23)C1 (centres unmarked) [Example 218, 7-{2-[(2-methoxyethyl)(methyl)amino]ethyl}-N-{3-methyl-4-[(6-methylpyridin-3-yl)oxy]phenyl}-5,6,7,8-tetrahydro[1]benzothieno[2,3-d]pyrimidin-4-amine] | < 5 µM | < 50 µM |
| Cc1ccc(Oc2ccc(Nc3ncnc4sc5c(c34)CCC(CCNCCS(C)(=O)=O)C5)cc2C)cn1 (centres unmarked) [Example 219, N-{3-methyl-4-[(6-methylpyridin-3-yl)oxy]phenyl}-7-(2-{[2-(methylsulfonyl)ethyl]amino}ethyl)-5,6,7,8-tetrahydro[1]benzothieno[2,3-d]pyrimidin-4-amine] | < 5 µM | < 50 µM |
| Cc1ccc(Oc2ccc(Nc3ncnc4sc5c(c34)CCC(CCNCCN3CCOCC3)C5)cc2C)cn1 (centres unmarked) [Example 220, N-{3-methyl-4-[(6-methylpyridin-3-yl)oxy]phenyl}-7-{2-[(2-morpholin-4-ylethyl)amino]ethyl}-5,6,7,8-tetrahydro[1]benzothieno[2,3-d]pyrimidin-4-amine] | < 5 µM | < 50 µM |
| Cc1ccc(Oc2ccc(Nc3ncnc4sc5c(c34)CCC(CCN3CCCC3)C5)cc2C)cn1 (centres unmarked) [Example 221, N-{3-methyl-4-[(6-methylpyridin-3-yl)oxy]phenyl}-7-(2-pyrrolidin-1-ylethyl)-5,6,7,8-tetrahydro[1]benzothieno[2,3-d]pyrimidin-4-amine] | < 5 µM | < 5 µM |
| Cc1ccc(Oc2ccc(Nc3ncnc4sc5c(c34)CCC(CCN(C)CCO)C5)cc2C)cn1 (centres unmarked) [Example 222, 2-(methyl{2-(4-({3-methyl-4-[(6-methylpyridin-3-yl)oxy]phenyl}amino)-5,6,7,8-tetrahydro[1]benzothieno[2,3-d]pyrimidin-7-yl]ethyl}amino)ethanol] | < 5 µM | < 5 µM |
| Cc1ccc(Oc2ccc(Nc3ncnc4sc5c(c34)CCC(CCN3CCC(N(C)C)C3)C5)cc2C)cn1 (centres unmarked) [Example 223, 7-{2-[3-(dimethylamino)pyrrolidin-1-yl]ethyl}-N-{3-methyl-4-[(6-methylpyridin-3-yl)oxy]phenyl}-5,6,7,8-tetrahydro[1]benzothieno[2,3-d]pyrimidin-4-amine] | < 5 µM | < 5 µM |
| Cc1ccc(Oc2ccc(Nc3ncnc4sc5c(c34)CCC(CCN3CCN(C)CC3)C5)cc2C)cn1 (centres unmarked) [Example 224, N-{3-methyl-4-[(6-methylpyridin-3-yl)oxy]phenyl}-7-[2-(4-methylpiperazin-1-yl)ethyl]-5,6,7,8-tetrahydro[1]benzothieno[2,3-d]pyrimidin-4-amine] | < 5 µM | < 5 µM |
| Cc1ccc(Oc2ccc(Nc3ncnc4sc5c(c34)CCC(CCN3CCOCC3)C5)cc2C)cn1 (centres unmarked) [Example 225, N-{3-methyl-4-[(6-methylpyridin-3-yl)oxy]phenyl}-7-(2-morpholin-4-ylethyl)-5,6,7,8-tetrahydro[1]benzothieno[2,3-d]pyrimidin-4-amine] | < 5 µM | < 50 µM |
| Cc1ccc(Oc2ccc(Nc3ncnc4sc5c(c34)CCC(CCN(C)C)C5)cc2C)cn1 (centres unmarked) [Example 226] | < 5 µM | < 50 µM |
| CN1CCN(CCC2CCc3c(sc4ncnc(Nc5ccc6c(cnn6Cc6ccccc6)c5)c34)C2)CC1 (centres unmarked) [Example 227, N-(1-benzyl-1H-indazol-5-yl)-7-[2-(4-methylpiperazin-1-yl)ethyl]-5,6,7,8-tetrahydro[1]benzothieno[2,3-d]pyrimidin-4-amine] | < 5 µM | < 50 µM |
| CN(C)CCC1CCc2c(sc3ncnc(Nc4ccc5c(cnn5Cc5ccccc5)c4)c23)C1 (centres unmarked) [Example 228, N-(1-benzyl-1H-indazol-5-yl)-7-[2-(dimethylamino)ethyl]-5,6,7,8-tetrahydro[1]benzothieno[2,3-d]pyrimidin-4-amine] | < 5 µM | < 50 µM |
| CNCCC1CCc2c(sc3ncnc(Nc4ccc5c(cnn5Cc5ccccc5)c4)c23)C1 (centres unmarked) [Example 229, N-(1-benzyl-1H-indazol-5-yl)-7-[2-(methylamino)ethyl]-5,6,7,8-tetrahydro[1]benzothieno[2,3-d]pyrimidin-4-amine] | < 5 µM | < 50 µM |
| Cc1ccc(Oc2ccc(Nc3ncnc4sc5c(c34)CCC(CCNCCN(C)C)C5)cc2C)cn1 (centres unmarked) [Example 230, N,N-dimethyl-N′-{2-[4-({3-methyl-4-[(6-methylpyridin-3-yl)oxy]phenyl}amino)-5,6,7,8-tetrahydro[1]benzothieno[2,3-d]pyrimidin-7-yl]ethyl}ethane-1,2-diamine] | < 5 µM | < 5 µM |
| Cc1ccc(Oc2ccc(Nc3ncnc4sc5c(c34)CCC(CCN(CCO)CCO)C5)cc2C)cn1 (centres unmarked) [Example 231, 2,2′-({2-[4-({3-methyl-4-[(6-methylpyridin-3-yl)oxy]phenyl}amino)-5,6,7,8-tetrahydro[1]benzothieno[2,3-d]pyrimidin-7-yl]ethyl}imino)diethanol] | < 5 µM | < 50 µM |
| CNCCC1CCc2c(sc3ncnc(Nc4ccc(Oc5ccc(C)nc5)c(C)c4)c23)C1 (centres unmarked) [Example 232, 7-[2-(methylamino)ethyl]-N-{3-methyl-4-[(6-methylpyridin-3-yl)oxy]phenyl}-5,6,7,8-tetrahydro[1]benzothieno[2,3-d]pyrimidin-4-amine] | < 5 µM | < 50 µM |
